Laboratory results published in patent US20240360114A1 (SIRONAX LTD., priority 2021, published 2024).

System: HT-1080 cells
Experiment: HT-1080 cell viability assay (ferroptosis induced by RSL3, Cell Titer-Glo)
Type: cell-based
Conditions: Homo sapiens, HT-1080, 20 h, ferroptosis inducer RSL3, 20 hours, ferroptosis inhibitory activity, Table 3
Procedure, shortened: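 Cells seeded overnight, then co-treated with RSL3 and compound (3-fold, 10-point dilution, top 1.1 μM) for 20 hours. Viability by CellTiter-Glo luminescence, normalized to untreated controls; EC50 from sigmoidal non-linear regression.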

Structure (SMILES)	EC50 [µM]
CC[C@@H]1CN(c2ccc(NC3CC4CCC(C3)N4)c(C)n2)C[C@H](CC)O1 (stereo partly drawn) [Compound 657, N-(6-((2S,6R)-2,6-diethylmorpholino)-2-methylpyridin-3-yl)-8-azabicyclo[3.2.1]octan-3-amine]	0.0001 to 0.1
CCNc1ccc2cc(NC3CC4(CC(N)C4)C3)ccc2c1 (centres unmarked) [Compound 658, N2-(6-aminospiro[3.3]heptan-2-yl)-N^6-ethylnaphthalene-2,6-diamine]	0.0001 to 0.1
CCc1nc(N2CC(C)OC(C(F)(F)F)C2)ccc1NC1CC2(CC(N)C2)C1 (centres unmarked) [Compound 659, N2-(2-ethyl-6-(2-methyl-6-(trifluoromethyl)morpholino)pyridin-3-yl)spiro[3.3]heptane-2,6-diamine]	0.0001 to 0.1
COCCN(CC(F)(F)F)c1ccc(NC2CC3(CC(N)C3)C2)c(C)n1 (centres unmarked) [Compound 660, N^5-(6-aminospiro[3.3]heptan-2-yl)-N^2-(2-methoxyethyl)-6-methyl-N2-(2,2,2-trifluoroethyl)pyridine-2,5-diamine]	0.0001 to 0.1
CC1CN(c2ccc3cc(NC4CC(N)C4(C)C)ccc3c2)CCO1 (centres unmarked) [Compound 661]	0.0001 to 0.1
